# Test results taken from ChEMBL document CHEMBL4000192, “Identification and optimization of a novel series of indoleamine 2,3-dioxygenase inhibitors” (Bioorg Med Chem Lett, 2017).
# Assays:
# [1] = Metabolic stability in rat liver microsomes assessed as parent compound remaining at 0.5 uM after 10 mins; assay type: ADME, microsome; conditions: read-out: Stability
# [2] = tested on: HeLa; assay: Cytotoxic activity against human HeLa cells by […]; assay type: cell-based
# [3] = Metabolic stability in human liver microsomes assessed as parent compound remaining at 0.5 uM after 10 mins; assay type: ADME, microsome; conditions: read-out: Stability
# [4] = Metabolic stability in mouse liver microsomes assessed as parent compound remaining at 0.5 uM after 10 mins; assay type: ADME, microsome; conditions: read-out: Stability
# [5] = target: T1, Indoleamine 2,3-dioxygenase 1 (Homo sapiens, UniProt P14902); assay: Inhibition of IDO1 in IFN-gamma stimulated human HeLa cells assessed as inhibition of kynurenine production preincubated with cells followed by IFN-gamma addition measured after 20 hrs; assay type: cell-based
# Target sequence in this assay (P14902 whole entry): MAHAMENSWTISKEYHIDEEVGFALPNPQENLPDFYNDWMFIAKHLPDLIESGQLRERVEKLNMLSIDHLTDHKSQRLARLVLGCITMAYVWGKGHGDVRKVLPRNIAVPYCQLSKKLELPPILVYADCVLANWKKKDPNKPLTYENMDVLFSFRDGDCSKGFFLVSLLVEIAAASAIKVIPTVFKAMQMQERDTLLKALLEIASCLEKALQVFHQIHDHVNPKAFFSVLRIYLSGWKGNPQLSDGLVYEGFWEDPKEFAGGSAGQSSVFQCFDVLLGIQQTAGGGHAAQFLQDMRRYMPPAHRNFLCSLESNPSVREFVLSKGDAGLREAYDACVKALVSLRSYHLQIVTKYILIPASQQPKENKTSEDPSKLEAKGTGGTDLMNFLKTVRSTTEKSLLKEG
# [6] = target: Cytochrome P450 2C9 (Homo sapiens, UniProt P11712); assay: Inhibition of CYP2C9 (unknown origin); assay type: ADME
# [7] = target: T2, Cytochrome P450 2B6 (Homo sapiens, UniProt P20813); assay: Inhibition of CYP2B6 (unknown origin); assay type: ADME
# T2 sequence (P20813 whole entry): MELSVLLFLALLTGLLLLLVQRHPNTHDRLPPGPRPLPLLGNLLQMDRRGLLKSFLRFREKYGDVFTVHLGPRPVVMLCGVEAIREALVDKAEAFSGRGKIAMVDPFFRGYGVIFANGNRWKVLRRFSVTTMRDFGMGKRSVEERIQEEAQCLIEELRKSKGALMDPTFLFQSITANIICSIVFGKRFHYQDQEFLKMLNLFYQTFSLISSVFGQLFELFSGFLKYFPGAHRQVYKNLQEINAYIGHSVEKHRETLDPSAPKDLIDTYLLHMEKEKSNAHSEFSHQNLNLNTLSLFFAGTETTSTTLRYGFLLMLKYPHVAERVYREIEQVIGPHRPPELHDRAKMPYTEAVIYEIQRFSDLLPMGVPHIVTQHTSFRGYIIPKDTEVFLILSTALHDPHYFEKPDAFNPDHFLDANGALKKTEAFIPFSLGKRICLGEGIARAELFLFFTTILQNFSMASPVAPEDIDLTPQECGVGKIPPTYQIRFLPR
# [8] = target: T3, Cytochrome P450 2C8 (Homo sapiens, UniProt P10632); assay: Inhibition of CYP2C8 (unknown origin); assay type: ADME
# T3 sequence (P10632 whole entry): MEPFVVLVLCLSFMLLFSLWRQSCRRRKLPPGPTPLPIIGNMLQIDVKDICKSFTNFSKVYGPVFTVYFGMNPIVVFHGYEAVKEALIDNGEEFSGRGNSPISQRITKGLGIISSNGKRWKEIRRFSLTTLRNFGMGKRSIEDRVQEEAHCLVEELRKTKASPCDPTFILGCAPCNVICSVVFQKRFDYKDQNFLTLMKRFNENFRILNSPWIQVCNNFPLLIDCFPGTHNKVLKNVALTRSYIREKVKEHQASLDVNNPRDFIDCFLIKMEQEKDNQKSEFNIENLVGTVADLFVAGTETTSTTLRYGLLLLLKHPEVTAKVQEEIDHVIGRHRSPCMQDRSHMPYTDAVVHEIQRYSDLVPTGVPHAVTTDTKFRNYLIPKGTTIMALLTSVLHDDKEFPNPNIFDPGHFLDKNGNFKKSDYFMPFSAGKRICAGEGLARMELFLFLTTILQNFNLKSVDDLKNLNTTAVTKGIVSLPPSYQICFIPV
# [9] = target: T4, Cytochrome P450 3A4 (Homo sapiens, UniProt P08684); assay: Inhibition of CYP3A4 (unknown origin) using BFC as substrate; assay type: ADME
# [10] = target: T5, Cytochrome P450 1A2 (Homo sapiens, UniProt P05177); assay: Inhibition of CYP1A2 (unknown origin); assay type: ADME
# T5 sequence (P05177 whole entry): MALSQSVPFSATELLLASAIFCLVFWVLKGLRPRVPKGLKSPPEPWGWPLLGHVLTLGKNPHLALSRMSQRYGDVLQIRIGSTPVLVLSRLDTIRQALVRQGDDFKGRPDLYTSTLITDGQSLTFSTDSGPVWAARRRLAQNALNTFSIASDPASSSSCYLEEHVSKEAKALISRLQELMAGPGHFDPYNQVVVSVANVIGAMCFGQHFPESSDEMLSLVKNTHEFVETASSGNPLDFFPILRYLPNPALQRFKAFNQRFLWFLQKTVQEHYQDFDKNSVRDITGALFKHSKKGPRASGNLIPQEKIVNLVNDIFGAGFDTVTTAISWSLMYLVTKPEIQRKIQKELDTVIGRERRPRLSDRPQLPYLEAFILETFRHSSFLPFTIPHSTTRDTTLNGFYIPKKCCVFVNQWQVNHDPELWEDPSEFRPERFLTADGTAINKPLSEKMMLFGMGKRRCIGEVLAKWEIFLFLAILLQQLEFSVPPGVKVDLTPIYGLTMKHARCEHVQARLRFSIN
# [11] = target: Cytochrome P450 2C19 (Homo sapiens, UniProt P33261); assay: Inhibition of CYP2C19 (unknown origin); assay type: ADME
# [12] = target: T4, Cytochrome P450 3A4; assay: Inhibition of CYP3A4 (unknown origin) using BZR as substrate; assay type: ADME
# [13] = target: Cytochrome P450 2D6 (Homo sapiens, UniProt P10635); assay: Inhibition of CYP2D6 (unknown origin); assay type: ADME
# [14] = target: T1, Indoleamine 2,3-dioxygenase 1; assay: Inhibition of IDO1 (unknown origin) at 25 uM using tryptophan as substrate preincubated for 15 mins followed by substrate addition by high-throughput screening assay relative to control
# Target sequence in this assay (P14902 whole entry, looked up): as the sequence (P14902 whole entry) above
# [15] = target: T1, Indoleamine 2,3-dioxygenase 1; assay: Inhibition of IDO1 (unknown origin) using tryptophan as substrate preincubated for 15 mins followed by substrate addition by high-throughput screening assay
# Target sequence in this assay (P14902 whole entry): as the sequence (P14902 whole entry) above
# Sequence of Cytochrome P450 2D6 (P10635 whole entry): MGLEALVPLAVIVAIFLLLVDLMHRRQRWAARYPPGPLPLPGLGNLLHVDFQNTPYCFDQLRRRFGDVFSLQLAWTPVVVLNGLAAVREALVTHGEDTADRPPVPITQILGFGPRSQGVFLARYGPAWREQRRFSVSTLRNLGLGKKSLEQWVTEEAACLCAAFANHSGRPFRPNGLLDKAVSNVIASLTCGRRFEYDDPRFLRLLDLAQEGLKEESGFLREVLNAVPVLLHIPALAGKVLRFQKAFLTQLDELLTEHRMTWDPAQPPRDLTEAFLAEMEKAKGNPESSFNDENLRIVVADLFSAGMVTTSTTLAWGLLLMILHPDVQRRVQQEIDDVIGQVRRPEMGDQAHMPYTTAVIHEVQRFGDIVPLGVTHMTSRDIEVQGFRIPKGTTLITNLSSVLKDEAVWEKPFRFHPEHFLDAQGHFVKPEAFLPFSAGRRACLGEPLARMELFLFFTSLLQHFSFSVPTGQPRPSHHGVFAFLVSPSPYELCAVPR
# T4 sequence (P08684 whole entry): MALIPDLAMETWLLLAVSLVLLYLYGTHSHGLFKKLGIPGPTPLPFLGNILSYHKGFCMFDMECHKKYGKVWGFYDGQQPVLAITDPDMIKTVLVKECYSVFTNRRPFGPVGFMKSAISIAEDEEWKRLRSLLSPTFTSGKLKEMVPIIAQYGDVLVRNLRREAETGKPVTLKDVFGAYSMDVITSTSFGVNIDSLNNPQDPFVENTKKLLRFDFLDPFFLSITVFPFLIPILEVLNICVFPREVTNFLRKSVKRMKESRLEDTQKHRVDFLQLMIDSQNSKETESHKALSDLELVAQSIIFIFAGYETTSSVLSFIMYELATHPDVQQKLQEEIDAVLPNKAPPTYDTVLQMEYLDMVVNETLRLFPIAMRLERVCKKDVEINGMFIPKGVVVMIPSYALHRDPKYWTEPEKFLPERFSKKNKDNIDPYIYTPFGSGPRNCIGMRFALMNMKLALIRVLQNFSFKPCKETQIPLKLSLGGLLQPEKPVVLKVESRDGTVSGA
# Sequence of Cytochrome P450 2C9 (P11712 whole entry): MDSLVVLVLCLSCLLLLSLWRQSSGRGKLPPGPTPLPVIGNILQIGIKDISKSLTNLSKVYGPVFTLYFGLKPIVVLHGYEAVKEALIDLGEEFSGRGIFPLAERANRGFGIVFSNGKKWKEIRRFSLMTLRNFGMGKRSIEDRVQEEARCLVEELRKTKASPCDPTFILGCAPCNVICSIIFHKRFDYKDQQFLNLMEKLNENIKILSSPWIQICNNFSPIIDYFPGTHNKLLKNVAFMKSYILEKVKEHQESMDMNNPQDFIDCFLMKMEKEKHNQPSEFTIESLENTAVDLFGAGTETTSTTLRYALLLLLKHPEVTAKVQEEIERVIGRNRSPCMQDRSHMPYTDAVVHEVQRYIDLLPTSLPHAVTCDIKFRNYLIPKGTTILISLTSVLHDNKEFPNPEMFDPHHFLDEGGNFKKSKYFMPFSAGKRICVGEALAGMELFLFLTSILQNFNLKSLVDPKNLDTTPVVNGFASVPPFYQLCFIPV
# Sequence of Cytochrome P450 2C19 (P33261 whole entry): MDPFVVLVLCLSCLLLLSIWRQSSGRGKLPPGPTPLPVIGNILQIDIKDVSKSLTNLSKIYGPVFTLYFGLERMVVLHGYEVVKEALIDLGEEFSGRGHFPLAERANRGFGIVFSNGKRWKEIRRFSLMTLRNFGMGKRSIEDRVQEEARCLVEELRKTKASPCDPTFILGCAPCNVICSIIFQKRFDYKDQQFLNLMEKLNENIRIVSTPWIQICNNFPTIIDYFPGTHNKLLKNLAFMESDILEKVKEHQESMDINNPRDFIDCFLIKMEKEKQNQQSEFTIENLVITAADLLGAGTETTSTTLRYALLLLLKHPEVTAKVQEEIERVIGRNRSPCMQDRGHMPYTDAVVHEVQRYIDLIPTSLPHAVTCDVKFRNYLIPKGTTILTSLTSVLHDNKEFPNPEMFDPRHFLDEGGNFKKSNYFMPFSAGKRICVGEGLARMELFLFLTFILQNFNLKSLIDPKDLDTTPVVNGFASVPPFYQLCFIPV
compound,measurement,setting,value
COc1ccc(-c2ccc(Oc3cccc4c3CCCC4)c(NC(=O)Nc3ccc(C)cc3)c2)cc1C(=O)O,"remaining at 10 min, 0.5 µM",[1],95%
same,IC50,[2],> 30 µM
same,"remaining at 10 min, 0.5 µM",[3],100%
same,"remaining at 10 min, 0.5 µM",[4],69%
same,IC50,[5],100 nM
COc1ccc(-c2ccc(Oc3cccc4c3CCCC4)c(NC(=O)Nc3ccccc3Cl)c2)cc1C(=O)O,IC50,[6],> 3 µM
same,IC50,[7],> 3 µM
same,"remaining at 10 min, 0.5 µM",[1],83%
same,IC50,[2],> 30 µM
same,IC50,[8],> 3 µM
same,"remaining at 10 min, 0.5 µM",[3],74%
same,"remaining at 10 min, 0.5 µM",[4],74%
same,IC50,[5],22 nM
same,IC50,[9],> 3 µM
same,IC50,[10],> 3 µM
same,IC50,[11],> 3 µM
same,IC50,[12],> 3 µM
same,IC50,[13],> 3 µM
COc1ccc(-c2ccc(Oc3cccc4c3CCCC4)c(NC(=O)Nc3cccc(C)c3)c2)cc1C(=O)O,IC50,[6],> 3 µM
same,IC50,[7],> 3 µM
same,"remaining at 10 min, 0.5 µM",[1],71%
same,IC50,[2],> 30 µM
same,IC50,[8],> 3 µM
same,"remaining at 10 min, 0.5 µM",[3],84%
same,"remaining at 10 min, 0.5 µM",[4],86%
same,IC50,[9],> 3 µM
same,IC50,[10],> 3 µM
same,IC50,[11],> 3 µM
same,IC50,[12],> 3 µM
same,IC50,[13],> 3 µM
COc1ccc(-c2ccc(Oc3cccc(C)c3C)c(NC(=O)Nc3ccc(C)cc3)c2)cc1C(=O)O,IC50,[2],> 30 µM
COc1ccccc1Oc1ccc(-c2ccc(OC)c(C(=O)O)c2)cc1NC(=O)Nc1ccc(C)cc1,IC50,[2],> 30 µM
CC(C)(C)c1ccccc1Oc1ccc(-c2cccc(C(=O)O)c2)cc1NC(=O)Nc1ccccc1,IC50,[2],> 30 µM
same,IC50,[5],1500 nM
Cc1cccc(NC(=O)Nc2cc(-c3cccc(C(=O)O)c3)ccc2Oc2ccccc2C(C)(C)C)c1,IC50,[2],> 30 µM
CC(C)(C)c1ccccc1Oc1ccc(-c2cccc(C(=O)O)c2)cc1NC(=O)Nc1ccc(Br)cc1,IC50,[2],> 30 µM
COc1ccc(-c2ccc(Oc3ccccc3Cl)c(NC(=O)Nc3ccc(C)cc3)c2)cc1C(=O)O,IC50,[2],> 30 µM
CCOc1ccc(-c2ccc(Oc3ccccc3C(C)(C)C)c(NC(=O)Nc3ccc(C)cc3)c2)cc1C(=O)O,IC50,[2],> 30 µM
CCc1ccccc1Oc1ccc(-c2ccc(OC)c(C(=O)O)c2)cc1NC(=O)Nc1ccc(C)cc1,IC50,[2],> 30 µM
COc1ccc(-c2ccc(Oc3cccc4c3CCCC4)c(NC(=O)Nc3ccccc3F)c2)cc1C(=O)O,"remaining at 10 min, 0.5 µM",[1],72%
same,IC50,[2],> 10 µM
same,"remaining at 10 min, 0.5 µM",[3],95%
same,"remaining at 10 min, 0.5 µM",[4],77%
COc1ccc(-c2ccc(Oc3cccc4c3CCCC4)c(NC(=O)Nc3ccccc3)c2)cc1C(=O)O,"remaining at 10 min, 0.5 µM",[1],92%
same,IC50,[2],> 10 µM
same,"remaining at 10 min, 0.5 µM",[3],80%
same,"remaining at 10 min, 0.5 µM",[4],96%
same,IC50,[5],62 nM
COc1ccc(-c2ccc(Oc3ccccc3C(C)C)c(NC(=O)Nc3ccc(C)cc3)c2)cc1C(=O)O,IC50,[2],> 30 µM
same,IC50,[5],340 nM
COc1ccc(-c2ccc(Oc3cccc4c3CCCC4)c(NC(=O)Nc3ccccc3C)c2)cc1C(=O)O,IC50,[6],> 3 µM
same,IC50,[7],> 3 µM
same,"remaining at 10 min, 0.5 µM",[1],65%
same,IC50,[2],> 30 µM
same,IC50,[8],> 3 µM
same,"remaining at 10 min, 0.5 µM",[3],41%
same,"remaining at 10 min, 0.5 µM",[4],70%
same,IC50,[5],49 nM
same,IC50,[9],> 3 µM
same,IC50,[10],> 3 µM
same,IC50,[11],> 3 µM
same,IC50,[12],> 3 µM
same,IC50,[13],> 3 µM
Cc1ccc(NC(=O)Nc2cc(-c3cc(Cl)cc(C(=O)O)c3)ccc2Oc2ccccc2C(C)(C)C)cc1,IC50,[2],> 30 µM
same,IC50,[5],250 nM
CC(C)(C)c1ccccc1Oc1ccc(-c2cccc(C(=O)O)c2)cc1NC(=O)Nc1ccc(OC(F)F)cc1,IC50,[2],> 30 µM
same,IC50,[5],2600 nM
Cc1ccc(NC(=O)Nc2cc(-c3cccc(C(=O)O)c3)ccc2Oc2ccccc2C(C)(C)C)cc1,IC50,[2],> 30 µM
Cc1ccc(NC(=O)Nc2cc(-c3ccc(Cl)c(C(=O)O)c3)ccc2Oc2ccccc2C(C)(C)C)cc1,IC50,[2],> 30 µM
COc1ccc(-c2ccc(Oc3ccccc3C#N)c(NC(=O)Nc3ccc(C)cc3)c2)cc1C(=O)O,IC50,[2],> 30 µM
same,IC50,[5],6000 nM
Cc1ccc(NC(=O)Nc2cc(-c3cccc(C(=O)O)c3F)ccc2Oc2ccccc2C(C)(C)C)cc1,IC50,[2],> 30 µM
same,IC50,[5],4500 nM
COc1ccc(-c2ccc(Oc3cccc4c3CCC4)c(NC(=O)Nc3ccc(C)cc3)c2)cc1C(=O)O,IC50,[2],> 30 µM
CC(C)(C)c1ccccc1Oc1ccc(-c2cccc(C(=O)O)c2)cc1NC(=O)Nc1ccc(Cl)cc1,IC50,[2],> 30 µM
COc1ccc(-c2ccc(Oc3ccccc3C(C)(C)CO)c(NC(=O)Nc3ccc(C)cc3)c2)cc1C(=O)O,IC50,[2],> 30 µM
same,IC50,[5],2400 nM
COc1ccc(-c2ccc(Oc3cccc(C(C)(C)C)c3)c(NC(=O)Nc3ccc(C)cc3)c2)cc1C(=O)O,IC50,[2],> 30 µM
C#CCOc1cccc(Oc2ccc(-c3ccc(OC)c(C(=O)O)c3)cc2NC(=O)Nc2ccc(C)cc2)c1C,IC50,[2],> 30 µM
CC(C)(C)c1ccccc1Oc1ccc(-c2cccc(C(=O)O)c2)cc1NC(=O)Nc1ccc(OC(F)(F)F)cc1,IC50,[6],2.5 µM
same,IC50,[7],> 5 µM
same,IC50,[2],22 µM
same,IC50,[8],> 5 µM
same,inhibition,[14],> 75%
same,IC50,[5],4000 nM
same,IC50,[15],87 nM
same,IC50,[9],> 5 µM
same,IC50,[10],> 5 µM
same,IC50,[11],> 5 µM
same,IC50,[12],> 5 µM
same,IC50,[13],> 5 µM
COc1ccc(NC(=O)Nc2cc(-c3cccc(C(=O)O)c3)ccc2Oc2ccccc2C(C)(C)C)cc1,IC50,[2],> 30 µM
COc1ccc(-c2ccc(Oc3ccccc3C(C)(C)C)c(NC(=O)Nc3ccc(C)cc3)c2)cc1C(=O)O,IC50,[2],> 30 µM
same,IC50,[5],350 nM
CCCc1ccccc1Oc1ccc(-c2ccc(OC)c(C(=O)O)c2)cc1NC(=O)Nc1ccc(C)cc1,IC50,[2],> 30 µM
Cc1ccccc1NC(=O)Nc1cc(-c2cccc(C(=O)O)c2)ccc1Oc1ccccc1C(C)(C)C,IC50,[2],> 30 µM
same,IC50,[5],1000 nM
COc1ccc(-c2ccc(Oc3ccccc3C)c(NC(=O)Nc3ccc(C)cc3)c2)cc1C(=O)O,IC50,[2],> 30 µM
